In PubChem BioAssay (NCI):
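Cells were grown in 96-well plates and exposed to each compound for 48 hours at five concentrations; endpoints were interpolated linearly between bracketing concentrations, or set to the highest concentration if not reached. GI50 = concentration required for 50% inhibition of growth. Definition used: TGI = concentration required for complete inhibition of growth.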

Columns and labels:
Assay in all cases: NCI-60 cell line screen, 48 h
A549 NSCLC = system: A549 NSCLC
SNB-19 CNS = system: SNB-19 CNS
HCT-15 colon = system: HCT-15 colon
PC-3 prostate = system: PC-3 prostate
MALME-3M melanoma = system: MALME-3M melanoma
DU-145 prostate = system: DU-145 prostate
OVCAR-8 ovarian = system: OVCAR-8 ovarian
U251 CNS = system: U251 CNS
NCI-H226 lung = system: NCI-H226 lung
CCRF-CEM leukemia = system: CCRF-CEM leukemia
COLO 205 colon = system: COLO 205 colon
OVCAR-4 ovarian = system: OVCAR-4 ovarian
IGROV1 ovarian = system: IGROV1 ovarian
EKVX NSCLC = system: EKVX NSCLC
NCI/ADR-RES ovarian = system: NCI/ADR-RES ovarian
BT-549 breast = system: BT-549 breast
HOP-62 NSCLC = system: HOP-62 NSCLC
MCF7 breast = system: MCF7 breast
HS 578T breast = system: HS 578T breast
MDA-MB-231 breast = system: MDA-MB-231 breast
SF-295 CNS = system: SF-295 CNS
TK-10 renal = system: TK-10 renal
RPMI-8226 leukemia = system: RPMI-8226 leukemia
A498 renal = system: A498 renal
SNB-75 CNS = system: SNB-75 CNS
NCI-H522 lung = system: NCI-H522 lung
SK-OV-3 ovarian = system: SK-OV-3 ovarian
HCT-116 colon = system: HCT-116 colon
KM12 colon = system: KM12 colon
SK-MEL-2 melanoma = system: SK-MEL-2 melanoma
K-562 leukemia = system: K-562 leukemia
OVCAR-3 ovarian = system: OVCAR-3 ovarian
MOLT-4 leukemia = system: MOLT-4 leukemia
786-0 renal = system: 786-0 renal
NCI-H460 lung = system: NCI-H460 lung
HL-60(TB) leukemia = system: HL-60(TB) leukemia
OVCAR-5 ovarian = system: OVCAR-5 ovarian
UACC-62 melanoma = system: UACC-62 melanoma
SW-620 colon = system: SW-620 colon
ACHN renal = system: ACHN renal
T-47D breast = system: T-47D breast
SK-MEL-5 melanoma = system: SK-MEL-5 melanoma
M14 melanoma = system: M14 melanoma
LOX IMVI melanoma = system: LOX IMVI melanoma
SR leukemia = system: SR leukemia
SK-MEL-28 melanoma = system: SK-MEL-28 melanoma
SN12C renal = system: SN12C renal
SF-539 CNS = system: SF-539 CNS
HT29 colon = system: HT29 colon
MDA-MB-435 = system: MDA-MB-435
NCI-H23 lung = system: NCI-H23 lung
UO-31 renal = system: UO-31 renal
HCC-2998 colon = system: HCC-2998 colon
SF-268 CNS = system: SF-268 CNS
UACC-257 melanoma = system: UACC-257 melanoma
CAKI-1 renal = system: CAKI-1 renal
RXF 393 renal = system: RXF 393 renal
HOP-92 NSCLC = system: HOP-92 NSCLC

## COc1ccc(C(=O)Nc2ncc(Cc3ccccc3Cl)s2)cc1
A549 NSCLC
  GI50: 435 nM
  TGI: > 47.4 µM
SNB-19 CNS
  GI50: 404 nM
  TGI: 19.2 µM
HCT-15 colon
  GI50: 59.3 nM
  TGI: 13.2 µM
PC-3 prostate
  GI50: 274 nM
  TGI: > 68.4 µM
MALME-3M melanoma
  GI50: 1120 nM
  TGI: 23.1 µM
DU-145 prostate
  GI50: 415 nM
  TGI: 14.2 µM
OVCAR-8 ovarian
  GI50: 462 nM
U251 CNS
  GI50: 288 nM
  TGI: 23.1 µM
NCI-H226 lung
  GI50: 283 nM
  TGI: 2530 nM
CCRF-CEM leukemia
  GI50: 148 nM
  TGI: > 100 µM
COLO 205 colon
  GI50: 264 nM
  TGI: 1030 nM
OVCAR-4 ovarian
  GI50: 2070 nM
  TGI: 30 µM
IGROV1 ovarian
  GI50: 486 nM
  TGI: 26.8 µM
EKVX NSCLC
  GI50: 1790 nM
  TGI: 38.6 µM
NCI/ADR-RES ovarian
  GI50: 145 nM
  TGI: 3.79 µM
BT-549 breast
  GI50: 427 nM
  TGI: 11 µM
HOP-62 NSCLC
  GI50: 667 nM
  TGI: 18.7 µM
MCF7 breast
  GI50: 137 nM
  TGI: > 34.5 µM
HS 578T breast
  GI50: 309 nM
  TGI: 23.6 µM
MDA-MB-231 breast
  GI50: 437 nM
  TGI: 20 µM
SF-295 CNS
  GI50: 214 nM
  TGI: 6.43 µM
TK-10 renal
  GI50: 11.9 µM
  TGI: 41.1 µM
RPMI-8226 leukemia
  GI50: 270 nM
  TGI: > 100 µM
A498 renal
  GI50: 6.54 µM
  TGI: 33.7 µM
SNB-75 CNS
  GI50: 201 nM
  TGI: 6.02 µM
NCI-H522 lung
  GI50: 118 nM
  TGI: 387 nM
SK-OV-3 ovarian
  GI50: 372 nM
  TGI: 16.6 µM
HCT-116 colon
  GI50: 114 nM
  TGI: 15.7 µM
KM12 colon
  GI50: 140 nM
  TGI: 23 µM
SK-MEL-2 melanoma
  GI50: 176 nM
  TGI: 3.83 µM
K-562 leukemia
  GI50: 60 nM
  TGI: > 100 µM
OVCAR-3 ovarian
  GI50: 191 nM
  TGI: 5.22 µM
MOLT-4 leukemia
  GI50: 266 nM
  TGI: > 100 µM
786-0 renal
  GI50: 400 nM
  TGI: 22.6 µM
NCI-H460 lung
  GI50: 147 nM
  TGI: 5.2 µM
HL-60(TB) leukemia
  GI50: 87.3 nM
  TGI: 1950 nM
OVCAR-5 ovarian
  GI50: 406 nM
  TGI: 22.6 µM
UACC-62 melanoma
  GI50: 127 nM
  TGI: 16.3 µM
SW-620 colon
  GI50: 106 nM
  TGI: > 100 µM
ACHN renal
  GI50: 502 nM
  TGI: 18.3 µM
T-47D breast
  GI50: 2090 nM
  TGI: > 56.7 µM
SK-MEL-5 melanoma
  GI50: 307 nM
  TGI: 6.44 µM
M14 melanoma
  GI50: 162 nM
  TGI: > 36.6 µM
LOX IMVI melanoma
  GI50: 259 nM
  TGI: > 35 µM
SR leukemia
  GI50: 39.8 nM
  TGI: > 100 µM
SK-MEL-28 melanoma
  GI50: 1550 nM
  TGI: > 66.4 µM
SN12C renal
  GI50: 309 nM
  TGI: 20.4 µM
SF-539 CNS
  GI50: 179 nM
  TGI: 842 nM
HT29 colon
  GI50: 128 nM
  TGI: 2230 nM
MDA-MB-435
  GI50: 31.6 nM
  TGI: 122 nM
NCI-H23 lung
  GI50: 625 nM
  TGI: 30.5 µM
UO-31 renal
  GI50: 696 nM
  TGI: 38.1 µM
HCC-2998 colon
  GI50: 240 nM
  TGI: 3.66 µM
SF-268 CNS
  GI50: 1580 nM
  TGI: 58.3 µM
UACC-257 melanoma
  GI50: 5.87 µM
  TGI: > 65.5 µM
CAKI-1 renal
  GI50: 138 nM
  TGI: 16.6 µM
RXF 393 renal
  GI50: 126 nM
  TGI: 1410 nM
HOP-92 NSCLC
  GI50: 11.8 µM
  TGI: > 80.2 µM
